# Assay results reported in PMC10412636, “An analysis of interactions between three structurally diverse anthocyanidins, as well as their glucosides, and model biological membranes, albumin, and plasmid DNA” (Scientific Reports, 2023).
# Key:
# [1] = MC540 probe fluorescence intensity in MM liposomes; conditions: 37 °C, positive = decrease
# Method: (§1) Two types of liposomes were used to study interactions with biological membranes: liposomes mimicking the composition of cancer cell membranes (mimic membrane liposome—MM) and liposomes formed from lipids extracted from human blood erythrocyte membranes (red blood cell membrane liposome—RBCM). […] Both lipids, dissolved in chloroform (MM liposome) and n-decane (RBCM liposome), were evaporated under a nitrogen atmosphere, and then dried in a desiccator for 90 min under a vacuum. The obtained dry lipid film was hydrated in phosphate buffer, pH 7.4, obtaining a concentration of 0.1 mg/ml, and then vortexed for one minute until a homogeneous, milky suspension was observed. The mixture was sonicated (Sonic, Milano, Italia) for 15 min keeping the sample in a bath of ice water, thus providing a cooling temperature of 0 °C. The suspension was then processed (extrusion) through polycarbonate filters with pore diameters of 100 and 200 nm using a Lipex extruder (Evonik). Liposomes, which had been prepared according to this procedure, was used in fluorimetric studies.
# (§2) To investigate these properties three fluorescent probes were used: MC540, TMA-DPH, and DPH. MC540 localizes to the outer, hydrophilic part of the membrane, within the region of the glycerol skeleton[44]. Changes in the fluorescence intensity of this probe were formulated as the relative change in intensity to the control as a function of anthocyanins concentration. The TMA-DPH and DPH probes are supposed to locate nearer to the interface and in the hydrophobic region, respectively[45]. The measurement of changes in the anisotropy of the TMA-DPH and DPH probes allowed us to reflect the mobility of the fluorescent probes in the membrane, and therefore to determine the fluidity of the bilayer[46]. Fluorescence anisotropy was calculated using the formula[47]:1 A=I‖-GI⊥/I‖+2GI⊥ where I‖ and I⊥ are the intensity of fluorescence in parallel and perpendicular directions, to the plane of polarization of the excitation wave, respectively. G is an apparatus constant that depends on the emission wavelength.
# (§3) Liposomes (the concentration of lipids in the sample was 0.1 mg/ml) were incubated for 30 min with the appropriate probe (dissolved in DMF, 1 µM concentration), and then the tested anthocyanins were added (final concentration of 1 to 30 µM). The control sample consisted of liposomes and a fluorescent probe. Fluorescence was measured on a fluorimeter (Cary Eclipse, Varian, San Diego, USA) at 37 °C. The excitation wavelengths λex and emission wavelengths λem respectively: MC540—λexc = 540 nm, λem = 590 nm; DPH—λexc = 360 nm, λem = 425 nm. nm; TMA-DPH—λexc = 340 nm, λem = 430 nm.
# [2] = MC540 probe fluorescence intensity in RBCM liposomes; parameters: species or system human; conditions: 37 °C, positive = decrease
# Method: as §1, §2, §3
# [3] = TMA-DPH probe fluorescence anisotropy in MM liposomes; conditions: negative = increase in anisotropy
# Method: as §1, §2, §3
# [4] = TMA-DPH probe fluorescence anisotropy in RBCM liposomes; parameters: species or system human; conditions: negative = increase in anisotropy
# Excerpt: Two types of liposomes were used to study interactions with biological membranes: liposomes mimicking the composition of cancer cell membranes (mimic membrane liposome—MM) and liposomes formed from lipids extracted from human blood erythrocyte membranes (red blood cell membrane liposome—RBCM). […] The RBCM liposome was according to the methodology described previously[42] with minor modifications[43]. Both lipids, dissolved in chloroform (MM liposome) and n-decane (RBCM liposome), were evaporated under a nitrogen atmosphere, and then dried in a desiccator for 90 min under a vacuum. The obtained dry lipid film was hydrated in phosphate buffer, pH 7.4, obtaining a concentration of 0.1 mg/ml, and then vortexed for one minute until a homogeneous, milky suspension was observed. The mixture was sonicated (Sonic, Milano, Italia) for 15 min keeping the sample in a bath of ice water, thus providing a cooling temperature of 0 °C. The suspension was then processed (extrusion) through polycarbonate filters with pore diameters of 100 and 200 nm using a Lipex extruder (Evonik). Liposomes, which had been prepared according to this procedure, was used in fluorimetric studies.
# To investigate these properties three fluorescent probes were used: MC540, TMA-DPH, and DPH. MC540 localizes to the outer, hydrophilic part of the membrane, within the region of the glycerol skeleton[44]. […] The TMA-DPH and DPH probes are supposed to locate nearer to the interface and in the hydrophobic region, respectively[45]. The measurement of changes in the anisotropy of the TMA-DPH and DPH probes allowed us to reflect the mobility of the fluorescent probes in the membrane, and therefore to determine the fluidity of the bilayer[46]. Fluorescence anisotropy was calculated using the formula[47]:1 A=I‖-GI⊥/I‖+2GI⊥ where I‖ and I⊥ are the intensity of fluorescence in parallel and perpendicular directions, to the plane of polarization of the excitation wave, respectively. G is an apparatus constant that depends on the emission wavelength.
# as §3
# [5] = DPH probe fluorescence anisotropy in MM liposomes; conditions: for Changes in DPH anisotropy relative to the control: MM, negative = increase in anisotropy
# Method: as §1, §2, §3
# [6] = DPH probe fluorescence anisotropy in RBCM liposomes; parameters: species or system human; conditions: for Changes in DPH anisotropy relative to the control: RBCM, negative = increase in anisotropy
# Method: as §1, §2, §3
# [7] = DPH fluorescence quenching, dissociation constant with MM liposome membrane; format: binding; conditions: 37 °C
# Method: as §1
# (§4) The phenomenon of quenching the fluorescence of the DPH probe by biologically active substances enabled us to evaluate the partition coefficient (Kd, dissociation constant) of anthocyanins with both MM and RBCM liposome membranes. For this purpose, changes in the fluorescence intensity of this probe were checked and the coefficient was calculated using the equation[48]:2 1/F0/F-1=Kd/[liposomes]×1/[anthocyanins]+1/liposomes where F0—fluorescence intensity in the absence of anthocyanins (control sample), F—fluorescence intensity in the presence of anthocyanins, [liposomes]—concentration of liposomes in mg/ml, [anthocyanins]—concentration of anthocyanins tested mg/ml.
# as §3
# [8] = DPH fluorescence quenching, dissociation constant with RBCM liposome membrane; format: binding, human; conditions: 37 °C
# Method: as §1, §4, §3
# [9] = molecular target: human serum albumin (HSA) (Homo sapiens, UniProt P02768); assay: Quenching of natural fluorescence of human serum albumin; format: binding; conditions: HSA […] 10^–5 M, 37 °C
# Method: The phenomenon of quenching the natural fluorescence of human serum albumin (HSA) was used to investigate the potential interaction of anthocyanins with this protein. […] Anthocyanins with concentrations ranging from 1 to 30 µM were added to HSA dissolved in phosphate buffer (1.5 × 10^–5 M) and then incubated at 37 °C for 20 min. Emission spectra were performed on a fluorimeter Cary Eclipse (Varian, San Diego, USA) at 37 °C. HSA fluorescence was excited with a wavelength of λ = 280 nm, the emission was measured in the range from 286 to 460 nm, and the fluorescence intensity was read at 345 nm where the emission maximum of HSA was located.
# The Stern–Volmer equation was used to thoroughly describe the quenching mechanism of natural fluorescence and to determine the bindings parameters of HSA: anthocyanin complexes:4 F0/F=1+Kqτ0Q=1+KSV[Q] where F0—fluorescence intensity in the absence of anthocyanins (control sample), F—fluorescence intensity in the presence of anthocyanins, KSV—Stern–Volmer quenching constant (KSV = Kq·τ0), [Q]—concentration of quencher (tested compound), Kq—bimolecular quenching constant, τ0—a lifetime of the fluorophore in the absence of quencher the fluorescence lifetime of a biopolymer is calculated as 5 × 10^–9 s[51].
# The apparent binding constants (Kb) and the number of binding sites (n) can be calculated using the following equation:5 log(F0-F/F]=logKb+nlog[Q]
# F0 and F are the fluorescence intensities before and after the addition of the quencher. From the linear plot of log (F0 − F)/F versus log [Q], the value of Kb was obtained from the intercept.
# pHbApr-1-Neo plasmid DNA = assay: TCSPC-FCS of PicoGreen-labelled plasmid DNA with anthocyanins; format: binding; conditions: for decrease in the diffusion time (tD): tested range of comp/bp from 0 to 5
# Method: To evaluate the biological interaction with DNA molecules the anthocyanins were initially dissolved in ETOH (1 mM). […] Mixing of such solutions with the aqueous DNA solutions used in the studies never exceeded 1% concentration ETOH (v/v) in the final solution. The DNA plasmid was labelled by PicoGreen (CPicoGreen/CDNAbp = 0.02)[52]. The pHbApr-1-Neo plasmid (10 kbp and contour length 3.4 µm) was a generous gift from the laboratory of Prof. Maciej Ugorski (Department of Biochemistry and Molecular Biology, Wrocław University of Environmental and Life Sciences Wroclaw, Poland). PicoGreen-labelled DNA samples mixed with the appropriate amount of anthocyanins were left overnight and then measured. The increasing concentration of anthocyanins in the tested samples was expressed as the ratio of the molar concentration of anthocyanins per molar concentration of DNA base pairs in a given sample (comp/bp). The 100 µl samples were measured in Ibidi 8-well chambers. Each point on the graph is a single sample (average of 10 measurements). All measurements were performed at room temperature (25 °C). Time-correlated single-photon counting fluorescence correlation spectroscopy (TCSPC-FCS) was used to study the interaction of plasmid DNA at the single molecule level with all tested anthocyanins. […] Low power of 1uW (at the back aperture of the objective) was chosen to minimize photobleaching and saturation. In the detection plane, a pinhole (50um in diameter) was used and the signal was collected by a single photon avalanche diode (SPAD, Microphoton Devices, Bolzano, Italy). Photon arrival times were stored using fast electronics (Picoharp 300, PicoQuant) in time-tagged time-resolved recording mode. Two independent times were assigned to each detected photon: (1) a time after the beginning of the measurement and (2) a time after the previous laser pulse. The FCS data analysis was done using home-built routines (DevC++, Bloodshed Software and OriginPro70, OriginLab Corporation). The TCSPC data analysis was performed using SymPhoTime software (PicoQuant). Further details of the data evaluation are given elsewhere.
# HSA = tested on: HSA; parameters: method as in earlier work; conditions: cited from earlier work
# [10] = 30 µM, listed as delphinidin glucoside
# Chain of human serum albumin (HSA) (P02768 25-609): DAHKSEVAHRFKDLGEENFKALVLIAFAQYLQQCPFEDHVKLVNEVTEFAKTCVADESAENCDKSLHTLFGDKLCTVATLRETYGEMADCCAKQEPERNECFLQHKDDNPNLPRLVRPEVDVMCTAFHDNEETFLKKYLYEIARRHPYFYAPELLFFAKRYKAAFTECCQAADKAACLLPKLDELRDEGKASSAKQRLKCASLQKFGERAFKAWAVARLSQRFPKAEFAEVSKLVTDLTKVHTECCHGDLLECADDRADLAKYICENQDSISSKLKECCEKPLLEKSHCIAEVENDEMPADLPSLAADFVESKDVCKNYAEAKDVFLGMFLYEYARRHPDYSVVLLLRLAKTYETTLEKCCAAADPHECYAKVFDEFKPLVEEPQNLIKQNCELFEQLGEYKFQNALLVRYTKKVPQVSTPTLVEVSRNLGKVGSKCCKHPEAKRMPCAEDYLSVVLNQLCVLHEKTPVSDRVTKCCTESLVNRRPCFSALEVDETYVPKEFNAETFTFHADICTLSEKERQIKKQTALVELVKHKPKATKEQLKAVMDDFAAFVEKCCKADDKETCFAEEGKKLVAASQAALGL
smiles,measurement,setting,value
"OCC1OC(Oc2cc3c(O)cc(O)cc3[o+]c2-c2cc(O)c(O)c(O)c2)C(O)C(O)C1O (centres unmarked) [Dp 3-glc, Delphinidin 3-O-glucoside]",Changes in MC540 fluorescence intensity relative to the control,[1]; 1 µM,3.27±0.12%
same,Changes in MC540 fluorescence intensity relative to the control,[1]; 5 µM,5.73±0.30%
same,Changes in MC540 fluorescence intensity relative to the control,[1]; 10 µM,10.51±0.55%
same,Changes in MC540 fluorescence intensity relative to the control,[1]; 20 µM,20.30±0.93%
same,Changes in MC540 fluorescence intensity relative to the control,[1]; 30 µM,30.30±0.19%
same,Changes in MC540 fluorescence intensity relative to the control,[1]; [10],30.3 ± 0.2%
same,Changes in MC540 fluorescence intensity relative to the control,[2]; 1 µM,11.73±0.51%
same,Changes in MC540 fluorescence intensity relative to the control,[2]; 5 µM,17.29±0.54%
same,Changes in MC540 fluorescence intensity relative to the control,[2]; 10 µM,22.06±1.25%
same,Changes in MC540 fluorescence intensity relative to the control,[2]; 20 µM,36.70±4.24%
same,Changes in MC540 fluorescence intensity relative to the control,[2]; 30 µM,47.56±9.12%
same,Changes in MC540 fluorescence intensity relative to the control,[2]; [10],47.6 ± 9.1%
same,Changes in TMA-DPH anisotropy relative to the control,[3]; 1 µM,-4.62±0.05%
same,Changes in TMA-DPH anisotropy relative to the control,[3]; 5 µM,-1.60±0.04%
same,Changes in TMA-DPH anisotropy relative to the control,[3]; 10 µM,0.26±0.005%
same,Changes in TMA-DPH anisotropy relative to the control,[3]; 20 µM,1.99±0.06%
same,Changes in TMA-DPH anisotropy relative to the control,[3]; 30 µM,0.41±0.01%
same,Changes in TMA-DPH anisotropy relative to the control,[4]; 1 µM,-2.73±0.14%
same,Changes in TMA-DPH anisotropy relative to the control,[4]; 5 µM,-0.01±0.00%
same,Changes in TMA-DPH anisotropy relative to the control,[4]; 10 µM,2.57±0.07%
same,Changes in TMA-DPH anisotropy relative to the control,[4]; 20 µM,2.52±0.16%
same,Changes in TMA-DPH anisotropy relative to the control,[4]; 30 µM,1.15±0.03%
same,Changes in DPH anisotropy relative to the control,[5]; 1 µM,-10.78±0.24%
same,Changes in DPH anisotropy relative to the control,[5]; 5 µM,-12.62±0.18%
same,Changes in DPH anisotropy relative to the control,[5]; 10 µM,-10.40±0.13%
same,Changes in DPH anisotropy relative to the control,[5]; 20 µM,-7.80±0.10%
same,Changes in DPH anisotropy relative to the control,[5]; 30 µM,-6.27±0.05%
same,Changes in DPH anisotropy relative to the control,[6]; 1 µM,-6.55±0.37%
same,Changes in DPH anisotropy relative to the control,[6]; 5 µM,-6.14±0.25%
same,Changes in DPH anisotropy relative to the control,[6]; 10 µM,-6.03±0.39%
same,Changes in DPH anisotropy relative to the control,[6]; 20 µM,-6.20±0.38%
same,Changes in DPH anisotropy relative to the control,[6]; 30 µM,-6.30±0.39%
same,Kd,[7],93.6 ± 19.5 µM
same,Kd,[8],13.4 ± 3.05 µM
same,Stern Volmer constant KSV,[9],20.09 ± 2.57 × 10^3 M^−1
same,number of binding sites n,[9],0.96 ± 0.03
same,"tD changes, times smaller than those caused by Pt3-glc",pHbApr-1-Neo plasmid DNA,more than 5 times
same,lifetime (LT),"pHbApr-1-Neo plasmid DNA; 0 < comp/bp < 2, decrease from 4.25 ns",about 2.25 ns
same,"lifetime (LT), plateau",pHbApr-1-Neo plasmid DNA; 2 < comp/bp < 5,about 2.1 ns
same,decrease in the diffusion time (tD),pHbApr-1-Neo plasmid DNA,2.5 fold
same,affinity for HSA compared to aglycone,HSA,tenfold lower
"COc1cc(-c2[o+]c3cc(O)cc(O)c3cc2O)cc(O)c1O [Pt, Petunidin]",Changes in MC540 fluorescence intensity relative to the control,[1]; 1 µM,17.63±1.11%
same,Changes in MC540 fluorescence intensity relative to the control,[1]; 5 µM,36.62±1.63%
same,Changes in MC540 fluorescence intensity relative to the control,[1]; 10 µM,50.22±5.62%
same,Changes in MC540 fluorescence intensity relative to the control,[1]; 20 µM,64.46±7.12%
same,Changes in MC540 fluorescence intensity relative to the control,[1]; 30 µM,72.51±3.32%
same,Changes in MC540 fluorescence intensity relative to the control,"[1]; 30 µM, listed as petunidin",72.5 ± 3.3%
same,Changes in MC540 fluorescence intensity relative to the control,[2]; 1 µM,16.68±0.58%
same,Changes in MC540 fluorescence intensity relative to the control,[2]; 5 µM,32.60±0.15%
same,Changes in MC540 fluorescence intensity relative to the control,[2]; 10 µM,43.35±1.60%
same,Changes in MC540 fluorescence intensity relative to the control,[2]; 20 µM,55.02±1.41%
same,Changes in MC540 fluorescence intensity relative to the control,[2]; 30 µM,61.93±1.58%
same,Changes in MC540 fluorescence intensity relative to the control,"[2]; 30 µM, listed as petunidin",61.9 ± 1.6%
same,Changes in TMA-DPH anisotropy relative to the control,[3]; 1 µM,-5.05±0.11%
same,Changes in TMA-DPH anisotropy relative to the control,[3]; 5 µM,-4.34±0.09%
same,Changes in TMA-DPH anisotropy relative to the control,[3]; 10 µM,-2.97±0.04%
same,Changes in TMA-DPH anisotropy relative to the control,[3]; 20 µM,-5.53±0.11%
same,Changes in TMA-DPH anisotropy relative to the control,[3]; 30 µM,-5.92±0.33%
same,Changes in TMA-DPH anisotropy relative to the control,[4]; 1 µM,-4.68±0.23%
same,Changes in TMA-DPH anisotropy relative to the control,[4]; 5 µM,-0.95±0.03%
same,Changes in TMA-DPH anisotropy relative to the control,[4]; 10 µM,-1.05±0.03%
same,Changes in TMA-DPH anisotropy relative to the control,[4]; 20 µM,1.13±0.07%
same,Changes in TMA-DPH anisotropy relative to the control,[4]; 30 µM,0.70±0.02%
same,highest percentage of an increase in DPH anisotropy relative to the control,"[5]; MM liposome, 20 µM",17.6 ± 0.4%
same,Changes in DPH anisotropy relative to the control,[5]; 1 µM,-13.00±0.31%
same,Changes in DPH anisotropy relative to the control,[5]; 5 µM,-15.66±0.33%
same,Changes in DPH anisotropy relative to the control,[5]; 10 µM,-17.48±0.09%
same,Changes in DPH anisotropy relative to the control,[5]; 20 µM,-17.59±0.36%
same,Changes in DPH anisotropy relative to the control,[5]; 30 µM,-14.74±0.10%
same,highest percentage of an increase in DPH anisotropy relative to the control,"[6]; RBCM liposome, 20 µM",10.5 ± 0.7%
same,Changes in DPH anisotropy relative to the control,[6]; 1 µM,-9.91±0.36%
same,Changes in DPH anisotropy relative to the control,[6]; 5 µM,-8.46±0.42%
same,Changes in DPH anisotropy relative to the control,[6]; 10 µM,-10.18±0.39%
same,Changes in DPH anisotropy relative to the control,[6]; 20 µM,-10.51±0.67%
same,Changes in DPH anisotropy relative to the control,[6]; 30 µM,-9.21±0.62%
same,Kd,[7],10.4 ± 2.45 µM
same,Kd,[8],15.3 ± 4.01 µM
same,Stern Volmer constant KSV,[9],25.99 ± 1.77 × 10^3 M^−1
same,number of binding sites n,[9],1.03 ± 0.03
same,lifetime (LT),"pHbApr-1-Neo plasmid DNA; comp/bp from 0 to 5, continuous decrease from 4.25 ns",2.3 ns
same,Particle Number (PN),"pHbApr-1-Neo plasmid DNA; comp/bp from 0 to 5, continuous decrease from 5.0",about 0
same,"changes in plasmid tD, lower compared to those obtained for Pt 3-glc",pHbApr-1-Neo plasmid DNA; comp/bp up to 0.8,~3.5 fold
same,decrease in the diffusion time (tD),pHbApr-1-Neo plasmid DNA,3.5 fold
